In patent US20220193072A1, “METHODS OF TREATING BREAST CANCER WITH TETRAHYDRONAPHTHALENE DERIVATIVES AS ESTROGEN RECEPTOR DEGRADER” (Arvinas Operations, Inc., priority 2020, published 2022):
Where a chain is given by its changes, count along the chain named. Like-named read-outs stand apart in the source and are kept apart here.

Tests used:
[1] = cited from earlier work; for progression free survival (PFS): minimum follow-up 18 months
ER = biological target: T1, ER (Homo sapiens, UniProt P03372); conditions: after 6 months of fulvestrant treatment; cited from earlier work
T1 sequence (P03372 1-595): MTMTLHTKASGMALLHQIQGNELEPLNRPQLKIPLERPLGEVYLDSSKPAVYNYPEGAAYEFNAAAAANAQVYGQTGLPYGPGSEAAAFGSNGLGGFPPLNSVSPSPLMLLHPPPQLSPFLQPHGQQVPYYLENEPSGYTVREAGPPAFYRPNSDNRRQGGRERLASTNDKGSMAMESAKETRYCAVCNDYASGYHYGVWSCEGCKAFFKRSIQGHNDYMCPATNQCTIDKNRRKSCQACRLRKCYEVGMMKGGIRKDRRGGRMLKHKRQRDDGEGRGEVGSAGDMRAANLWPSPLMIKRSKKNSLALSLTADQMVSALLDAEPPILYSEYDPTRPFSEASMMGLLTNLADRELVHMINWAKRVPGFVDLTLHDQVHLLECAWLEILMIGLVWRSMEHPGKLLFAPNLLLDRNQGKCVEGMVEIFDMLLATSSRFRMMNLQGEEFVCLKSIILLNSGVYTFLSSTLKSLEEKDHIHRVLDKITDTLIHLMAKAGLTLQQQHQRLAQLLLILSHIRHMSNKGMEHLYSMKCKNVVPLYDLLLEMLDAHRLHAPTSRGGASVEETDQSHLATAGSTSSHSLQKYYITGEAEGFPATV

MCF7 xenograft = test: MCF7 orthotopic xenograft, combination with CDK4/6 inhibitor; assay type: in vivo, NOD/SCID mice
ERα (ESR1 Y537S) = biological target: T2, ERα (ESR1 Y537S) (Homo sapiens, UniProt P03372, Y537S); test: Tumor ERα levels in ESR1 (Y537S) PDX model; assay type: in vivo; conditions: ESR1 (Y537S) PDX, fulvestrant 200 mg/kg SC twice/week, 2 weeks
T2 construct: a hormone-independent patient-derived xenograft model; from tissue; host or cells: ESR1 (Y537S) patient-derived xenograft tumour grown in mice
T2 sequence (P03372 1-595 Y537S): T1 sequence (P03372 1-595) with Y537S

ESR1 (Y537S) PDX = ESR1 (Y537S) PDX model tumor growth inhibition; assay type: in vivo; conditions: ESR1 (Y537S) PDX, fulvestrant 200 mg/kg SC twice/week, 2 weeks
ERα = biological target: T3, ERα (Homo sapiens, UniProt P03372); test: In vivo ERα degradation in MCF7 xenograft tumors (immunoblot); design: species or system NOD/SCID mice; conditions: MCF7/estradiol model, fulvestrant 200 mg/kg
T3 construct: robustly degrades ER in ER-positive breast cancer cell lines; endogenous in cells; host or cells: MCF7, T47D (cell culture); MCF7 and tamoxifen-resistant MCF7 xenograft tumours in mice
T3 sequence (P03372 1-595): T1 sequence (P03372 1-595)
Procedure: Approximately 18 hours after the final administration, mice were sacrificed, and MCF7 xenografts were harvested and lysed to determine ER levels by immunoblotting. […] Diet was supplemented with peanut butter to help maintain body weights.
Species: NOD/SCID female mice (Charles River, 6-7 weeks old upon arrival).
Animal handling: Axial mammary fat pad implantation of 5×10^6 MCF7 cells/200 per mouse (17β-estradiol 0.36 mg 90-day pellet implanted day before).
Dosing: Oral (gavage), once a day (QD) for 3 days (QD×3). Vehicle: 2% Tween80/PEG400 (‘PEG/Tween’).
Sampling: Terminal sacrifice was ˜18 hrs after last dose; tumors were harvested, divided and flash frozen. ERα levels were determined by immunoblotting.
Cell Lysis: flash frozen tumors were removed from −80° C. storage and placed on dry ice. RIPA lysis buffer and Halt protease inhibitors were used at 400 μl per tumor sample. A steel ball (5 mm) was placed in each sample for tissue disruption. Samples were lysed with TissueLyzer at 24 Hz for 4 minutes. The homogenization was stopped half way through the process and the block flipped over for the duration of the process. Steel beads were pulled out of the tubes and the lysates were spun down at 21,000×g for 15 minutes at 4° C. Lysates were then measured for total protein concentration by BCA (per manufacturer's protocol).
Detection of proteins by immunoblot: lysates were mixed with sample buffer and reducing agent (per manufacturer's protocol). Samples were denatured at 95° C. for 5 minutes in thermal cycler. Samples were cooled and spun down (5000×g; 1 minute) prior to loading on gel. Gels were loaded with 10 μg total protein per lane. Samples were loaded on 4-15% Criterion Tris/Glycine gels and run for 25 minutes at 250 constant volts in 1×Tris/Glycine/SDS buffer. Protein was transferred from gels to nitrocellulose with Bio-Rad Turbo on default setting. All blots were rinsed with distilled water and blocked for 1 hour at RT in 5% BSA in TBS-T (TBS with 0.1% Tween) on rocker. The blots were cut so that beta-actin and ERα can be detected from the same lane/sample.
Blots were incubated with primary antibody in 5% BSA in TBST (0.1%) overnight at 4° C. on rocker:
Blot was washed with TBST (0.1%) three times for 5 minutes on rocker at RT. Secondary antibody was added, and blots incubated at RT on rocker for 1 hour (1:18,000 anti-rabbit-HRP in TBS-T). Blots were washed 3 times in TBST (0.1%) for 5 minutes at RT on the rocker. Signal was developed with Pierce WestFemto maximum sensitivity substrate for 5 minutes and blots imaged on BioRad ChemiDoc.
Sampling: Tumors were measured twice weekly. Terminal sacrifice was ˜18 hr after last dose; tumors were harvested, divided, and flash frozen. ERα levels were determined by immunoblotting.
At study termination, the tumors were removed from the mice, and ERα levels were determined by immunoblotting the tumor homogenates.
Sampling: tumors were measured twice weekly. Terminal sacrifice was ˜18 hr after last dose; tumors were harvested, divided, and flash frozen. ERα levels were determined by immunoblotting.

reduction of tumor ERα levels (ERα (ESR1 Y537S)): 63% | % ERα ↓ (ERα): None
SMILES: C[C@]12CC[C@@H]3c4ccc(O)cc4C[C@@H](CCCCCCCCC[S+]([O-])CCCC(F)(F)C(F)(F)F)[C@H]3[C@@H]1CC[C@@H]2O (stereo partly shown) [Fulvestrant]
progression free survival (PFS) ([1]; fulvestrant 250 mg): 5.4 months | response rate ([1]; fulvestrant 250 mg, CI 10.5-19.4%): 14.6% | overall survival (OS) ([1]; fulvestrant 250 mg): 22.8 months | progression free survival (PFS) ([1]; fulvestrant 500 mg): 6.5 months | response rate ([1]; fulvestrant 500 mg, 95% CI 9.7-18.8%): 13.8% | overall survival (OS) ([1]; fulvestrant 500 mg): 25.1 months | ER baseline levels remaining (ER): up to 50% | Day 28 Tumor volume (mean ± SD) (MCF7 xenograft; fulvestrant 200 mg/kg SC): 489 ± 154 mm^3 | TGI (% vehicle) (MCF7 xenograft; fulvestrant 200 mg/kg SC): 46 % vehicle | tumor growth inhibition (TGI) (MCF7 xenograft; single agent 200 mg/kg subcutaneous, twice/week for 2 weeks): 46% | tumor growth inhibition (TGI) (ESR1 (Y537S) PDX): 62%
